Source: patent US7341867B2, “Human preprotachykinin gene promoter” (University of Medicine & Dentistry of New Jersey, priority 1999, dated 2008)

Legend:
Type in all cases: cell-based, human
[1] = test system: PPT-I promoter (Upstream/N0); assay: Luciferase reporter gene assay, pGL3-Upstream/N0 in transfected bone marrow stroma
Description: (§1) Transfected bone marrow stroma was stimulated with optimal concentrations of IL-1α (2.5 ng/ml), SCF (8 ng/ml) or 1 nM substance P, SP (Sigma, St Louis, Mo.) and/or 10 nM NK-1-specific antagonist (CP-99,994) in α-MEM with 2% FCS. In other embodiments, bone marrow stroma was stimulated with 5 μg/ml forskolin, FK (Sigma) for 2 and 5 h. SCF was purchased from R&D Systems (Minneapolis, Minn.) and IL-1α was obtained from Hoffman LaRoche, Nutley, N.J. Pfizer, Inc. (Groton, Conn.) provided CP-99,994. Substance P and CP-99,994 were dissolved and stored as described in Ramewshwar et al (1996), supra. Optimal parameters were determined with dose-response and time-course studies.
pGL3-basic with inserts of different fragments from PPT-I-p1.2 was co-transfected with pβ-gal-Control (0.5 μg each) in 80% confluent bone marrow stroma using SuperFect (Qiagen, Valencia, Calif.). After 48 h cells were scraped in 30 μl 250 mM Tris (pH 8.0) and then lysed by freezing and thawing in a dry ice/ethanol bath. Cell-free lysates (24 μl) were obtained by centrifugation at 15,000 g for 5 min at 4° C. and then diluted with 5× cell culture lysis buffer (Promega). Luciferase and β-gal activities were quantitated with 10 μl of lysates using Luciferase assay system (Promega) and Luminescent β-galactosidase detection kit II (Clontech) respectively. In the experimental model, the ratios of Luciferase/β-gal in cells transfected with vector alone ranged from 0.18 to 0.19 and was normalized to 1. Because cytokines induce the promoter upstream of β-gal, in cytokine-stimulated cells, luciferase activity was presented/mg of total protein the levels normalized with stroma transfected with vector alone. Total protein was determined using standard techniquees well known in the art.
Mutations were performed with a mutagenesis kit (Stratagene, La Jolla, Calif.). The desired mutant sequences (Table 1) were synthesized within 40 nt in the forward and reverse directions and then used in PCR with pGL3 containing wild type Upstream/N0. After PCR amplification, mutation was verified by identification of Apa L1 within CRE-like mutant and the loss of Xho 1 in CRE mutant.

SP-IR = assay: ELISA of immunoreactive-SP (SP-IR) in stroma cell extracts
Description: Competitive ELISA quantitated SP-IR in supernatants from breast cancer cell cultures that were 80% confluent. Cell-free supernatants were stored in siliconized tubes at −70° C. until ready to be assayed. Streptavidin, […] in distilled water, was added to Immulon 96-well plates (Dynatech Laboratories Inc., Chantilly, Va.). Streptavidin was allowed to dry at 37° C. After this, wells were blocked with 5% nonfat dry milk for 2 hr at room temperature and then washed with PBS containing 0.1% Tween-20 (PBST). Chiron Mimotopes (Emeryville, Calif.) synthesized biotinylated-SP, with spacer arm. Stock solution was diluted in 0.1% (v/v) acetic acid at 5 mg/ml, aliquoted in siliconized tubes and stored at −70° C. Working solution was diluted at 750 ng/ml with PBS containing 0.1% (w/v) BSA and 0.1% (w/v) sodium azide. Biotinylated-SP ([…]) was added to wells and plates incubated for 1 hr at room temperature. Plates were washed (×4) with PBST. Competition by the […] and soluble SP for anti-SP forms the basis for the next step. Equal volume (50 μl) of optimum rabbit anti-SP (1/15,000), and unknown or standard solution were added to wells. Plates were incubated at room temperature for 1 hr. Each unknown was assayed in triplicate as undiluted and three serial dilutions. Bound anti-SP was detected by incubating for 1 hr with optimum (150 ng/ml) AP-goat antirabbit IgG. Color was developed with Sigma 104 phosphatase substrate as described (Rameshwar, P. et al. (1996), Blood 88, 98-106). A standard curve was developed with O.D. (405 nm) versus 12 serial dilutions of standard SP that ranged from 100 to 0.08 ng/ml. […]
In the next set of experiments, we investigated the possibility for an indirect mechanism in the activation of PPT-I promoter. […] Since SCF induces endogenous PPT-I (Table 6), we used ELISA (Singh, D. et al, supra) to quantitate the level of its major translation product, immunoreactive-SP (SP-IR), in stroma cell extracts. […] To address this, we incubated the SCF-stimulated cells with 10 nM of an NK-1-specific antagonist (CP-99,994) and then quantitated luciferase activity. […]

NK-2 mRNA = assay: Quantitative RT-PCR in stimulated bone marrow stroma; conditions: BM stroma; 8 ng/ml SCF or 2.5 ng/ml IL-1a; 16 h; serum-free α-MEM
Description: (§2) In a second embodiment of the present invention, bone marrow stroma was stimulated in serum-free α-MEM supplemented with Insulin-transferrin-selenium-A (Life Technologies). Quantitative RT-PCR with total RNA, extracted from bone marrow stroma and construction of standard DNA was performed as described in Singh, D., supra. The end sequences of the standard DNA contained gene-specific sequences that are complementary for the reaction primers. The primers in the standard DNA flank neutral DNA. Total RNA (2 μg) was reverse transcribed and 200 ng cDNA used in PCR with specific oligonucleotide primers for PPT-I, NK-1 or NK-2. Standard DNA, log10 fold dilutions, ranged between 10^−2 to 10^−6 attomole/L. Each unknown sample was assayed with a particular concentration of standard DNA in the same reaction tube. PCR products (10 μl) were separated by electrophoresis on 1.5% agarose containing ethidium bromide and the densities of the DNA bands quantitated with a Fluorimager (Molecular Dynamics, Sunnyvale, Calif.) and then analyzed with ImageQuant software. A standard curve was established for each unknown sample: band densities of unknown/standard DNA vs. Log10 standard DNA concentration was used to determine the concentration of RNA molecules in the unknown samples. The concentration of the unknown sample was selected at the concentration in which the ratio of the unknown and standard were equivalent.
as §1

NK-1 mRNA = assay: as above
Description: as §2, §1

β-PPT-I mRNA = assay: as above
Description: as §2, §1
Confluent bone marrow stroma was stimulated with 25 ng/ml rhIL-1α or 10 ng/ml SCF for 24 h. Poly A RNA was isolated from total RNA by selection (2×) on oligo-dT cellulose (Life Technologies). The cellulose column was washed once with 10 mM Tris, pH 7.0; 0.5 M NaCl; […] and once with 10 mM Tris, pH 7.0; 0.2 M NaCl; […]. Poly A RNA was eluted with 10 mM Tris (pH 7.0) and […]. RNA was precipitated by standard techniques and then resuspended in DEPC-treated water. The purity was verified by the absence of rRNA.

[2] = stroma stimulated with SCF, five experiments
[3] = BM stroma, 8 ng/ml SCF or 2.5 ng/ml IL-1a, 16 h, serum-free α-MEM

“SCF: stem cell factor, cytokine purchased from R&D Systems” was tested, and the “increase in luciferase activities compared to unstimulated cells” value ([1]; pGL3-Upstream/N0 wild type, optimal SCF or IL-1a, 10 h) was 4 fold, the “induction of luciferase in cells transfected with the double mutants” value ([1]; pGL3-Upstream/N0 with mutant CRE and CRE-like) was “no significant induction” and the “SP-IR in stromal extracts” value (SP-IR; SCF-stimulated, after 36 h, n=5, ±SD) was 115 ± 8 pg/mL. For the same substance, the “SP-IR at 4 h post-transfection” value (SP-IR; [2]) was 122 ± 14 pg/mL, the “SP-IR at time 0 post-transfection” value (SP-IR; [2]) was 110 ± 18 pg/mL and the “NK-2 mRNA” value (NK-2 mRNA) was 273 ± 19 Molecules/μg total RNA. For the same substance, the “NK-1 mRNA” value (NK-1 mRNA; [3]) was 5253 ± 170 Molecules/μg total RNA, the NK-1 induced (NK-1 mRNA; optimal SCF for 36 h) was 5052±50 molecules/μg total RNA and the “β-PPT-I (molecules/μg total RNA)” value (β-PPT-I mRNA; BM stroma, 1 nM SP, 8 ng/ml SCF and/or 10 nM CP-99,994, 16 h) was 1324 ± 76 molecules/μg total RNA. For the same substance, the “β-PPT-I mRNA” value (β-PPT-I mRNA; [3]) was 1336 ± 134 Molecules/μg total RNA and the “molecules of β-PPT-I/μg poly A” value (β-PPT-I mRNA; poly A RNA from stroma stimulated with 25 ng/ml rhIL-1α or 10 ng/ml SCF for 24 h, n=6) was 134,340±545 molecules of β-PPT-I/μg poly A.
